Source: patent US20240025891A1 (Celgene Corporation, priority 2020, published 2024)

These compounds were tested on Dirofilaria immitis microfilariae and 4th stage larvae (L4) (assay: Heartworm screen Dirofilaria immitis (DiMF and DiL4 assays)). Conditions: read-out: D. immitis Act class.
Type: cell-based
Procedure: Heartworm Screen Dirofilaria immitis (D. immitis)
(§1) Dirofilaria immitis, Microfilaria (DiMF) Assay. Compounds were dissolved and serially diluted in DMSO. Aliquots were spotted to the empty wells of assay plates. Media and microfilariae of Dirofilaria immitis were added to each well to dilute the test compounds to the desired concentrations. Assay plates were incubated for approximately 72 hours, and the larvae in each well were observed microscopically for drug effect. Microfilariae in each well were assessed subjectively for survival or paralysis, and results were reported as Minimum Effective Dose (MED).
as §1, with “L4 stage (DiL4)” for “Microfilaria (DiMF)”, “4th stage larvae (L4)” for “microfilariae”, “Larvae” for “Microfilariae”
Active and selective (DiL4 vs. DiMF potency) example compounds were subsequently evaluated in heartworm positive dog studies to correlate the in vitro selectivity profile with in vivo effects on circulating microfilariae.

| Compound | IC50 [nM] |
| --- | --- |
| Cc1cnc(Nc2nc(-c3ccccn3)cs2)c(C)c1 [Example 124, N-(3,5-dimethyl-pyridin-2-yl)-4-(pyridin-2-yl)thiazol-2-amine] | < 200 |
| Cc1sc(Nc2ccccn2)nc1-c1ccccn1 [Example 227, 5-methyl-N,4-di(pyridin-2-yl)thiazol-2-amine] | < 200 |
| CCOc1cnc(-c2csc(Nc3ncccc3C)n2)c(C)c1 [Example 75, 4-(5-ethoxy-3-methylpyridin-2-yl)-N-(3-methylpyridin-2-yl)thiazol-2-amine] | < 200 |
| CCOc1ccc(-c2csc(Nc3ncc(C(F)(F)F)cc3C)n2)nc1 [Example 84, 4-(5-ethoxypyridin-2-yl)-N-(3-methyl-5-(trifluoromethyl)pyridin-2-yl)thiazol-2-amine] | 200 to 500 |
| CCc1sc(Nc2cc(C)ccn2)nc1-c1ccccn1 [Example 184, 5-ethyl-N-(4-methylpyridin-2-yl)-4-(pyridin-2-yl)thiazol-2-amine] | 200 to 500 |
| O=C(NC1CC1)c1ccnc(Nc2nc(-c3ccccn3)cs2)c1 [Example 170, N-cyclopropyl-2-(4-(pyridin-2-yl)thiazol-2-ylamino) isonicotinamide] | 500 to 5000 |
| c1ccc(-c2csc(Nc3cc(-c4cccc5ccccc45)ccn3)n2)nc1 [Example 175, N-(4-(naphthalen-1-yl)pyridin-2-yl)-4-(pyridin-2-yl)thiazol-2-amine] | < 200 |
| Cc1cccnc1Nc1nc(-c2ccc(OC3CC3)cn2)cs1 [Example 48] | 200 to 500 |
| CC(=O)N(C)c1cc(C(F)(F)F)cnc1Nc1nc(-c2ccc(OC(C)C)cn2)cs1 [Example 93, N-(2-(4-(5-isopropoxypyridin-2-yl)thiazol-2-ylamino)-5-(trifluoromethyl)pyridin-3-yl)-N-methylacetamide] | 500 to 5000 |
| CCOc1cccnc1-c1csc(Nc2ncccc2C)n1 [Example 77, 4-(3-ethoxypyridin-2-yl)-N-(3-methylpyridin-2-yl)thiazol-2-amine] | < 200 |
| Cc1ccc(-c2csc(Nc3cc(C)ccn3)n2)nc1 [Example 1, N-(4-Methylpyridin-2-yl)-4-(5-methylpyridin-2-yl)thiazol-2-amine] | < 200 |
| CCCc1ccnc(Nc2nc(-c3ccccn3)cs2)c1 [Example 172, N-(4-propylpyridin-2-yl)-4-(pyridin-2-yl)thiazol-2-amine] | < 200 |
| COc1ccc(Nc2nc(-c3ccccn3)cs2)nc1 [Example 218, N-(5-methoxypyridin-2-yl)-4-(pyridin-2-yl)thiazol-2-amine] | 500 to 5000 |
| CCOc1cccc(-c2csc(Nc3ncccc3C)n2)n1 [Example 71] | 500 to 5000 |
| CCOc1cccc(-c2csc(Nc3cc(C)ccn3)n2)n1 [Example 78, 4-(6-ethoxypyridin-2-yl)-N-(4-methylpyridin-2-yl)thiazol-2-amine] | 500 to 5000 |
| CSc1ccc(-c2csc(Nc3ncccc3C)n2)nc1 [Example 80, N-(3-methylpyridin-2-yl)-4-(5-(methylthio)pyridin-2-yl)thiazol-2-amine] | < 200 |
| c1ccc(-c2csc(Nc3cc4ccccc4cn3)n2)nc1 [Example 128, N-(isoquinolin-3-yl)-4-(pyridin-2-yl)thiazol-2-amine] | 200 to 500 |
| Cc1cnc(Nc2nc(-c3ccccn3)cs2)cc1C(F)(F)F [Example 129, N-(5-methyl-4-(trifluoro-methyl)pyridin-2-yl)-4-(pyridin-2-yl)thiazol-2-amine] | < 200 |
| c1ccc(-c2cccnc2Nc2nc(-c3ccccn3)cs2)cc1 [Example 125, N-(3-phenylpyridin-2-yl)-4-(pyridin-2-yl)thiazol-2-amine] | 500 to 5000 |
| COc1ccc(-c2csc(Nc3cc(C)ccn3)n2)nc1 [Example 225, 4-(5-methoxypyridin-2-yl)-N-(4-methylpyridin-2-yl)thiazol-2-amine] | 200 to 500 |
| Cc1ccnc(Nc2nc(-c3ccccn3)c(CCOC3CCC3)s2)c1 [Example 180, 5-(2-cyclobutoxy-ethyl)-N-(4-methylpyridin-2-yl)-4-(pyridin-2-yl)thiazol-2-amine] | < 200 |
| Cc1cc(C(F)(F)F)cnc1Nc1nc(-c2cc3c(cn2)N(C)CC3)cs1 [Example 97, 4-(1-methyl-2,3-dihydro-1H-pyrrolo[2,3-c]pyridin-5-yl)-N-(3-methyl-5-(trifluoromethyl)pyridin-2-yl)thiazol-2-amine] | < 200 |
| CC(C)c1cnc(Nc2nc(-c3ccccn3)cs2)cc1C(F)(F)F [Example 127, N-(5-isopropyl-4-(trifluoro-methyl)pyridin-2-yl)-4-(pyridin-2-yl)thiazol-2-amine] | < 200 |
| CCOc1ccc(-c2csc(Nc3ccc(Cl)cn3)n2)nc1 [Example 85, N-(5-chloropyridin-2-yl)-4-(5-ethoxypyridin-2-yl)thiazol-2-amine] | 500 to 5000 |

| Compound | IC50 [nM] |
| --- | --- |
| Cc1ccnc(Nc2nc(-c3cc(OC4COC4)ccn3)cs2)c1 [Example 102, N-(4-methylpyridin-2-yl)-4-(4-(oxetan-3-yloxy)pyridin-2-yl)thiazol-2-amine] | 500 to 5000 |
| CCOc1ccnc(-c2csc(Nc3cc(C)ccn3)n2)c1 [Example 224, 4-(4-ethoxypyridin-2-yl)-N-(4-methylpyridin-2-yl)thiazol-2-amine] | 200 to 500 |
| CC(C)c1ccc(Nc2nc(-c3ccccn3)cs2)nc1 [Example 219, N-(5-isopropylpyridin-2-yl)-4-(pyridin-2-yl)thiazol-2-amine] | < 200 |
| CCOc1ccc(-c2csc(Nc3ncc(F)cc3C)n2)nc1 [Example 79, 4-(5-ethoxypyridin-2-yl)-N-(5-fluoro-3-methylpyridin-2-yl)thiazol-2-amine] | 200 to 500 |
| COc1ccnc(Nc2nc(-c3ccccn3)cs2)c1 [Example 121, N-(4-methoxypyridin-2-yl)-4-(pyridin-2-yl)thiazol-2-amine] | 200 to 500 |
| Cc1ccnc(Nc2nc(-c3cc(OC4CN(C)C4)ccn3)cs2)c1 [Example 98, 4-(4-(1-methylazetidin-3-yloxy)pyridin-2-yl)-N-(4-methylpyridin-2-yl)thiazol-2-amine] | 500 to 5000 |
| CCOc1ccc(-c2csc(Nc3cc(C)ccn3)n2)nc1 [Example 91, 4-(5-ethoxypyridin-2-yl)-N-(4-methylpyridin-2-yl)thiazol-2-amine] | < 200 |
| Cc1ccnc(-c2csc(Nc3ncccc3C)n2)c1 [Example 222, N-(3-methylpyridin-2-yl)-4-(4-methylpyridin-2-yl)thiazol-2-amine] | < 200 |
| CCOc1cnc(-c2csc(Nc3cc(C)ccn3)n2)c(C)c1 [Example 74, 4-(5-ethoxy-3-methylpyridin-2-yl)-N-(4-methylpyridin-2-yl)thiazol-2-amine] | < 200 |
| CCOc1ccc(-c2csc(Nc3ncccc3C3CC3)n2)nc1 [Example 83, N-(3-cyclopropylpyridin-2-yl)-4-(5-ethoxypyridin-2-yl)thiazol-2-amine] | 500 to 5000 |
| COc1cccnc1-c1csc(Nc2cc(C)ccn2)n1 [Example 7] | 200 to 500 |
| CCOc1ccc(-c2csc(Nc3ncc(C)cc3C)n2)nc1 [Example 88, N-(3,5-dimethylpyridin-2-yl)-4-(5-ethoxypyridin-2-yl)thiazol-2-amine] | < 200 |
| Cc1cccnc1Nc1nc(-c2ccc(Cl)cn2)cs1 [Example 94, 4-(5-chloropyridin-2-yl)-N-(3-methylpyridin-2-yl)thiazol-2-amine] | 200 to 500 |
| CCOc1cccnc1-c1csc(Nc2cc(C)ccn2)n1 [Example 72, 4-(3-ethoxypyridin-2-yl)-N-(4-methylpyridin-2-yl)thiazol-2-amine] | < 200 |
| CNC(=O)c1ccc(-c2ccnc(Nc3nc(-c4ccccn4)cs3)c2)cc1 [Example 171, N-methyl-4-(2-(4-(pyridin-2-yl)thiazol-2-ylamino)pyridin-4-yl)benzamide] | 500 to 5000 |
| CCOc1ccc(Nc2nc(-c3ccc(OCC)cn3)cs2)nc1 [Example 87, N,4-bis(5-ethoxypyridin-2-yl)thiazol-2-amine] | < 200 |
| Cc1ccnc(Nc2nc(-c3ncccc3-c3ccccc3)cs2)c1 [Example 103, N-(4-methylpyridin-2-yl)-4-(3-phenylpyridin-2-yl)thiazol-2-amine] | < 200 |
| CC(=O)N(C)c1cc(C(F)(F)F)cnc1Nc1nc(-c2cc3c(cn2)N(C)CC3)cs1 [Example 76, N-methyl-N-(2-(4-(1-methyl-2,3-dihydro-1H-pyrrolo[2,3-c]pyridin-5-yl)thiazol-2-ylamino)-5-(trifluoromethyl)pyridin-3-yl)acetamide] | 500 to 5000 |
| c1ccc(-c2csc(Nc3cc(C4CC4)ccn3)n2)nc1 [Example 176, N-(4-cyclopropyl-pyridin-2-yl)-4-(pyridin-2-yl)thiazol-2-amine] | < 200 |
| CC(=O)N(C)c1cc(C(F)(F)F)cnc1Nc1nc(-c2cc(OC(C)C)ccn2)cs1 [Example 82, N-(2-(4-(4-isopropoxypyridin-2-yl)thiazol-2-ylamino)-5-(trifluoromethyl)pyridin-3-yl)-N-methylacetamide] | 200 to 500 |
| Cc1ccnc(-c2csc(Nc3ncccc3-c3ccccc3)n2)c1 [Example 99, 4-(4-methylpyridin-2-yl)-N-(3-phenylpyridin-2-yl)thiazol-2-amine] | < 200 |
| c1ccc(-c2csc(Nc3cc(-c4ncccn4)ccn3)n2)nc1 [Example 174, 4-(pyridin-2-yl)-N-(4-(pyrimidin-2-yl)pyridin-2-yl)thiazol-2-amine] | 200 to 500 |
| Cc1ccnc(Nc2nc(-c3ncccc3C#N)cs2)c1 [Example 92, 2-(2-(4-methylpyridin-2-ylamino)thiazol-4-yl)nicotinonitrile] | 500 to 5000 |
